In this data set the test system is tissue between the subcutaneous fascia of the rat back. The settings on record: in vivo, sc. The protocol: Six rats (Wistar/ST female) were anesthetized by intraperitoneal administration of pentobarbital and inhalation of isoflurane, and each of the solutions (physiological saline and a 2% aqueous solution of low-endotoxin sodium alginate AL2) was individually injected (implanted) in an amount of 1 ml into the tissue between the subcutaneous fascia at a subcutaneous depth of about 1 cm at each of eight sites from the upper back to the lower back, using 1-ml syringe and a 23 G needle. The injection of each solution was performed after randomization. Each needle entry site was sutured with one stitch of 5-0 proline thread.
After 3 weeks, each rat was sacrificed by pentobarbital overdose, and the back implantation sites were cut out and immersion-fixed in a 10% formaldehyde solution. The fixed tissues were subjected to hematoxylin-eosin staining (HE staining) and safranin-O staining (SOFG staining) according to usual methods.
After 12 weeks, HE staining and SOFG staining were performed in the same manner as in Example 1.
Rats in which implantation was performed in the same manner as in Example 4 were subjected to MTC staining, and type I collagen staining in addition to HE staining and SOFG staining. […] MTC staining and type I collagen staining were performed according to usual methods. […]

The source of these data is patent publication US20240408129A1, “TISSUE FORMATION AGENT” (NATIONAL UNIVERSITY CORPORATION SHIGA UNIVERSITY OF MEDICAL …, priority 2021, published 2024).

As to collagen, the “retention / residual implanted material at injection site” value was “present in an amorphous state at the injection sites”.
